How the values were obtained:
Format in all cases: physicochemical
[1] = Batch-wise single stage back-extraction from ethyl acetate into water, distribution coefficient by HPLC
Experimental: (§1) HPLC analysis was based on reversed phase liquid chromatography followed by UV-detection at 238 nm. Apparatus: Dionex HPLC-UV system comprising of a P680 pump, a TCC-100 column compartment with thermostat, a WPS-3000 auto sampler and a UVD34OU PDA detector.
(§2) pH values mentioned in the description and claims of the present application were measured using a Radiometer PHM82 standard pH meter equipped with a Mettler Toledo Inlab 412 pH electrode (electrolyte 9823). Equilibration was carried out at 20±1° C. using a Merck pH 4.00 buffer (art. nr. 1.09435.1000) and a Merck pH 7.00 buffer (art. nr. 1.09439.1000).
A broth obtained by fermentation of Penicillium chrysogenum transformant T1.48 as described in Example 4 of WO 2007/147827 (2 liter, containing 2.5 g/kg pravastatin and 0.8 g/kg compactin) was centrifuged and the supernatant was divided into 2 portions of 800 ml. One of these portions of supernatant (800 ml), ethyl acetate (800 ml) and dicalite 448 (20 g) were mixed and the pH was adjusted to 4 with 6N sulfuric acid. The mixture was filtered over a Seitz Z-2000 filter plate. The phases of the filtrate were separated and the organic phase was washed once with water (400 ml), giving an ethyl acetate extract (700 ml) which was divided into eight portions of 80 ml and one of 60 ml. Each portion was mixed with an equal volume of water at a certain pH, varying from 4.5 to 8. After mixing, the phases were separated and analyzed by HPLC.

[2] = Multi stage cross-current back-extraction from ethyl acetate at pH 5.9, distribution coefficient by HPLC; conditions: water/ethyl acetate
Experimental: as §1, §2
Starting material for this experiment was broth filtrate, obtained after ultra-filtration of broth obtained by fermentation of Penicillium chrysogenum transformant T1.48 as described in Example 4 of WO 2007/147827 using a 50 nm poly-sulfone membrane. The filtrate (5.25 liter, containing 1.2 g/l pravastatin and 0.37 g/l compactin) was extracted twice with ethyl acetate (2×2.5 liter) at pH 4. For a clear phase separation, the organic phases were filtered through a Seitz Z-2000 filter plate. The extraction yields were 90.6% and 8.3% respectively, so the overall extraction yield was 98.9%. The organic phases were combined and washed with water (2.5 liter), giving ethyl acetate extract (4.65 liter, yield over the wash step 97%) which was concentrated to 250 ml under vacuum at T<40° C., giving a clear solution containing ˜25 g/l pravastatin. This solution was extracted three times with water (3×250 ml) at pH 5.9. The pH was adjusted with 4N sodium hydroxide. The aqueous and organic phases were analyzed with HPLC (Table 4). As can be calculated, after the second back-extraction the total extraction yield of pravastatin in the combined aqueous phases was 91% pravastatin and after the third back-extraction the total extraction yield of pravastatin in the combined aqueous phases was 96%. The ratio pravastatin:compactin was 3:1 in the starting mixture, 26:1 after one back-extraction, 19:1 after two back-extractions and 17:1 after three back-extractions.

[3] = Batch-wise single stage back-extraction from methyl isobutyl ketone into water, distribution coefficient by HPLC
Experimental: as §1, §2
One of the portions of supernatant (800 ml) obtained in Example 1, methyl isobutyl ketone (800 ml) and dicalite 448 (20 g) were mixed and the pH was adjusted to 4 with 6N sulfuric acid. The mixture was filtered over a Seitz Z-2000 filter plate. The phases of the filtrate were separated and the organic phase was washed once with water (400 ml), giving a methyl isobutyl ketone extract (750 ml) from which eight portions of 80 ml were taken. Each portion was mixed with an equal volume of water at a certain pH, varying from 4.5 to 8. After mixing, the phases were separated and analyzed by HPLC.

[4] = Multi stage cross-current back-extraction from isobutyl acetate at pH 6, distribution coefficient by HPLC; conditions: water/isobutyl acetate
Experimental: as §1, §2
Starting material for this experiment was broth filtrate, obtained after ultra-filtration of broth obtained by fermentation of Penicillium chrysogenum transformant T1.48 as described in Example 4 of WO 2007/147827 using a 50 nm poly-sulfone membrane. The filtrate (2 liter, containing 1.2 g/l pravastatin and 0.37 g/l compactin) was extracted twice with isobutyl acetate (2×1 liter) at pH 4. For a clear phase separation, the organic phases were filtered through a Seitz Z-2000 filter plate. The organic phases were combined and washed with water (500 ml), giving isobutyl acetate extract (1960 ml) which was concentrated to 100 ml under vacuum at T<40° C. The concentrate was decolorized using a coal cartridge filled with Cuno C55 carbon (1.8 g carbon; diameter of carbon plate 18 cm^2). After rinsing a clear solution (150 ml) was obtained containing ˜12 g/l pravastatin and 3.8 g/l compactin. This solution was extracted three times with water (3×150 ml) at pH 6. The pH was adjusted with 25% ammonia. The aqueous and organic phases were analyzed with HPLC (Table 3). As can be calculated, after the second back-extraction the total extraction yield of pravastatin in the combined aqueous phases was 97.6% pravastatin and after the third back-extraction the total extraction yield of pravastatin in the combined aqueous phases was 99.6%. The ratio pravastatin:compactin was 3:1 in the starting mixture, 45:1 after one back-extraction, 25:1 after two back-extractions and 17:1 after three back-extractions.

Row | SMILES | Distribution coefficient (CAqueous phase/COrganic phase) ([1]; pH 4.5) | Distribution coefficient (CAqueous phase/COrganic phase) ([1]; pH 5) | Distribution coefficient (CAqueous phase/COrganic phase) ([1]; pH 5.5) | Distribution coefficient (CAqueous phase/COrganic phase) ([1]; pH 6) | Distribution coefficient (CAqueous phase/COrganic phase) ([1]; pH 6.25) | Distribution coefficient (CAqueous phase/COrganic phase) ([1]; pH 6.5) | Distribution coefficient (CAqueous phase/COrganic phase) ([1]; pH 7) | Distribution coefficient (CAqueous phase/COrganic phase) ([1]; pH 7.5) | Distribution coefficient (CAqueous phase/COrganic phase) ([1]; pH 8) | Distribution coefficient (CAqueous phase/COrganic phase) ([2]; pH 5.9, 1st extraction) | Distribution coefficient (CAqueous phase/COrganic phase) ([2]; pH 5.9, 2nd extraction) | Distribution coefficient (CAqueous phase/COrganic phase) ([2]; pH 5.9, 3rd extraction) | Distribution coefficient (CAqueous phase/COrganic phase) ([3]; pH 4.5) | Distribution coefficient (CAqueous phase/COrganic phase) ([3]; pH 5) | Distribution coefficient (CAqueous phase/COrganic phase) ([3]; pH 5.5) | Distribution coefficient (CAqueous phase/COrganic phase) ([3]; pH 6) | Distribution coefficient (CAqueous phase/COrganic phase) ([3]; pH 6.5) | Distribution coefficient (CAqueous phase/COrganic phase) ([3]; pH 7) | Distribution coefficient (CAqueous phase/COrganic phase) ([3]; pH 7.5) | Distribution coefficient (CAqueous phase/COrganic phase) ([3]; pH 8) | other results
1 | CC[C@H](C)C(=O)O[C@H]1CCC=C2C=C[C@H](C)[C@H](CC[C@@H](O)C[C@@H](O)CC(=O)[O-])[C@H]21.[Na+] [Comp, compactin] | 0.0 | 0.0 | 0.0 | 0.0 | 0.0 | 0.1 | 0.3 | 0.8 | 2.9 | 0.08 | 0.06 | 0.03 | 0.0 | 0.0 | 0.0 | 0.0 | 0.1 | 0.2 | 0.9 | 3.3 | Distribution coefficient (CAqueous phase/COrganic phase) ([4]; pH 6, 1st extraction): 0.06; Distribution coefficient (CAqueous phase/COrganic phase) ([4]; pH 6, 2nd extraction): 0.07; Distribution coefficient (CAqueous phase/COrganic phase) ([4]; pH 6, 3rd extraction): 0.07
2 | CC[C@H](C)C(=O)O[C@H]1C[C@H](O)C=C2C=C[C@H](C)[C@H](CC[C@@H](O)C[C@@H](O)CC(=O)[O-])[C@H]21.[Na+] [Prava, pravastatin] | 0.1 | 0.2 | 0.4 | 1.2 | 1.9 | 3.5 | 10.3 | 27.4 | 94.1 | 1.5 | 1.9 | 0.7 | 0.2 | 0.2 | 0.6 | 1.4 | 4.0 | 12.0 | 37.5 | 83.8 | Distribution coefficient (CAqueous phase/COrganic phase) ([4]; pH 6, 1st extraction): 4.8; Distribution coefficient (CAqueous phase/COrganic phase) ([4]; pH 6, 2nd extraction): 5.9; Distribution coefficient (CAqueous phase/COrganic phase) ([4]; pH 6, 3rd extraction): 5.2

Reference: patent publication US20110130450A1, “PRAVASTATIN EXTRACTION” (priority 2008, published 2011)
